What is called IC50 is the concentration that inhibits the measured activity by half.

Where two headings read alike, the source gives them in different places.

The values below come from US20260193268A1, “TRICYCLIC PI3Ka INHIBITOR, PREPARATION METHOD THEREFOR, AND PHARMACEUTICAL USE THEREOF” (WIGEN BIOMEDICINE TECHNOLOGY (SHANGHAI) CO., LTD., priority 2022, published 2026).

Experiment [1] has as its system HCC1954 cells (with PI3Kα H1047R mutation). Put plainly: In vitro inhibition of HCC1954 cell proliferation (CellTiter-Lumi). The following applies: Homo sapiens, HCC1954, 144 h, HCC1954 cells, 144 h, CellTiter-Lumi. The experiment is classed as cell-based. On the procedure: Assay for In Vitro Inhibition of HCC1954 Cell Proliferation by Compounds of the Present Disclosure
The growth of the cells was evaluated, and the IC50 for the inhibition of cell growth by the compounds was calculated.

Experiment [2] relates to MCF-7 cells (with PI3Kα E545K mutation). Put plainly: In vitro inhibition of MCF-7 cell proliferation (CellTiter-Lumi). It is filed as cell-based. The following applies: Homo sapiens, MCF7, 144 h. The procedure, abridged: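 MCF-7 (PI3Kα E545K) seeded at 2000 cells/well; serially diluted compounds added next day and exposed for 144 h. Cellular ATP read by CellTiter-Lumi luminescence; IC50 for growth inhibition calculated.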

Where [3] appears, read: class symbols, read-out: Inhibitory activity against HCC1954 cells (IC50), class symbols.
Where [4] appears, read: class symbols, read-out: Inhibitory activity against MCF-7 cells (IC50), class symbols.
The mark [5] stands for this setting: numeric values, read-out: Inhibitory activity against HCC1954 cells (IC50).
The mark [6] stands for this setting: numeric values, read-out: Inhibitory activity against MCF-7 cells (IC50).

On to `N#CC(=CC1(N)CC1)C(=O)Nc1ccc(N2CC(N3CCN(c4ccc5c(c4)-c4nc(N6C(=O)OC[C@H]6C(F)F)cn4CCO5)CC3)C2)nc1` [Compound 253], for which the IC50 in experiment [1] (setting [3]) and in experiment [2] (setting [4]) was < 50 nM in each case.
With `CC=C(C#N)C(=O)Nc1ccc(N2CC(N3CCN(c4ccc5c(c4)-c4nc(N6C(=O)OC[C@H]6C(F)F)cn4CCO5)CC3)C2)nc1` [Compound 254], the IC50 in experiment [1] (setting [3]) and in experiment [2] (setting [4]) was < 50 nM each time.
In the case of `CNC1(C=C(C#N)C(=O)Nc2ccc(N3CC(N4CCN(c5ccc6c(c5)-c5nc(N7C(=O)OC[C@H]7C(F)F)cn5CCO6)CC4)C3)nc2)CC1` [Compound 255], the IC50 in experiment [1] (setting [3]) and in experiment [2] (setting [4]) was < 50 nM throughout.
`CC(C)(C=C(C#N)C(=O)Nc1cnc(N2CC(N3CCN(c4ccc5c(c4)-c4nc(N6C(=O)OC[C@H]6C(F)F)cn4CCO5)CC3)C2)nc1)N1CCOCC1` [Compound 258]: the IC50 in experiment [1] (setting [3]) and in experiment [2] (setting [4]) was < 50 nM each time.
As for `CC(C)(C)C=C(C#N)C(=O)Nc1cnc(N2CC(N3CCN(c4ccc5c(c4)-c4nc(N6C(=O)OC[C@H]6C(F)F)cn4CCO5)CC3)C2)nc1` [Compound 259], the IC50 in experiment [1] (setting [3]) and in experiment [2] (setting [4]) was < 50 nM in each case.
With `CC(C)(N)C=C(C#N)C(=O)Nc1cnc(N2CC(N3CCN(c4ccc5c(c4)-c4nc(N6C(=O)OC[C@H]6C(F)F)cn4CCO5)CC3)C2)nc1` [Compound 260], the IC50 in experiment [1] (setting [3]) and in experiment [2] (setting [4]) was < 50 nM in each case.
Turning to `CNC(C)(C)C=C(C#N)C(=O)Nc1cnc(N2CC(N3CCN(c4ccc5c(c4)-c4nc(N6C(=O)OC[C@H]6C(F)F)cn4CCO5)CC3)C2)nc1` [Compound 261], the IC50 in experiment [1] (setting [3]) and in experiment [2] (setting [4]) was < 50 nM throughout.
Turning to `CC(C)C=C(C#N)C(=O)Nc1cnc(N2CC(N3CCN(c4ccc5c(c4)-c4nc(N6C(=O)OC[C@H]6C(F)F)cn4CCO5)CC3)C2)nc1` [Compound 262], the IC50 in experiment [1] (setting [3]) and in experiment [2] (setting [4]) was < 50 nM in each case.
Consider `N#CC(=CC1CC1)C(=O)Nc1cnc(N2CC(N3CCN(c4ccc5c(c4)-c4nc(N6C(=O)OC[C@H]6C(F)F)cn4CCO5)CC3)C2)nc1` [Compound 263], for which the IC50 in experiment [1] (setting [3]) and in experiment [2] (setting [4]) was < 50 nM in each case.
For `CC(C)(C=C(C#N)C(=O)Nc1cnc(N2CC(N3CCN(c4ccc5c(c4)-c4nc(N6C(=O)OC[C@H]6C(F)F)cn4CCO5)CC3)C2)nc1)N1CC2(COC2)C1` [Compound 264], the IC50 in experiment [1] (setting [3]) and in experiment [2] (setting [4]) was < 50 nM in each case.
For the compound `CC(C)(C=C(C#N)C(=O)Nc1cnc(N2CC(N3CCN(c4ccc5c(c4)-c4nc(N6C(=O)OC[C@H]6C(F)F)cn4CCO5)CC3)C2)nc1)N1CCC1` [Compound 265], the IC50 in experiment [1] (setting [3]) and in experiment [2] (setting [4]) was < 50 nM in each case.
In the case of `CC(C)(O)C=C(C#N)C(=O)Nc1cnc(N2CC(N3CCN(c4ccc5c(c4)-c4nc(N6C(=O)OC[C@H]6C(F)F)cn4CCO5)CC3)C2)nc1` [Compound 266], the IC50 in experiment [1] (setting [3]) and in experiment [2] (setting [4]) was < 50 nM each time.
For the compound `COC(C)(C)C=C(C#N)C(=O)Nc1cnc(N2CC(N3CCN(c4ccc5c(c4)-c4nc(N6C(=O)OC[C@H]6C(F)F)cn4CCO5)CC3)C2)nc1` [Compound 267], the IC50 in experiment [1] (setting [3]) and in experiment [2] (setting [4]) was < 50 nM each time.
As for `COCCNC(C)(C)C=C(C#N)C(=O)Nc1cnc(N2CC(N3CCN(c4ccc5c(c4)-c4nc(N6C(=O)OC[C@H]6C(F)F)cn4CCO5)CC3)C2)nc1` [Compound 268], the IC50 in experiment [1] (setting [3]) and in experiment [2] (setting [4]) was < 50 nM throughout.
Take `CC1(C=C(C#N)C(=O)Nc2cnc(N3CC(N4CCN(c5ccc6c(c5)-c5nc(N7C(=O)OC[C@H]7C(F)F)cn5CCO6)CC4)C3)nc2)COC1` [Compound 269]: the IC50 in experiment [1] (setting [3]) and in experiment [2] (setting [4]) was < 50 nM each time.
Turning to `N#CC(=CC1CCCN1)C(=O)Nc1cnc(N2CC(N3CCN(c4ccc5c(c4)-c4nc(N6C(=O)OC[C@H]6C(F)F)cn4CCO5)CC3)C2)nc1` (stereo partly drawn) [Compound 270], the IC50 in experiment [1] (setting [3]) and in experiment [2] (setting [4]) was < 50 nM throughout.
On to `N#CC(=CC1(N)CC1)C(=O)Nc1cnc(N2CC(N3CCN(c4ccc5c(c4)-c4nc(N6C(=O)OC[C@H]6C(F)F)cn4CCO5)CC3)C2)nc1` [Compound 271], for which the IC50 in experiment [1] (setting [3]) and in experiment [2] (setting [4]) was < 50 nM throughout.
As to `CC=C(C#N)C(=O)Nc1cnc(N2CC(N3CCN(c4ccc5c(c4)-c4nc(N6C(=O)OC[C@H]6C(F)F)cn4CCO5)CC3)C2)nc1` [Compound 272], the IC50 in experiment [1] (setting [3]) and in experiment [2] (setting [4]) was < 50 nM each time.
In the case of `CNC1(C=C(C#N)C(=O)Nc2cnc(N3CC(N4CCN(c5ccc6c(c5)-c5nc(N7C(=O)OC[C@H]7C(F)F)cn5CCO6)CC4)C3)nc2)CC1` [Compound 273], the 50% inhibitory concentration (IC50) in experiment [1] (setting [3]) and in experiment [2] (setting [4]) was < 50 nM throughout.
`CN(C1COC1)C(C)(C)C=C(C#N)C(=O)Nc1ccc(N2CC(N3CCN(c4ccc5c(c4)-c4nc(N6C(=O)OC[C@H]6C(F)F)cn4CCO5)CC3)C2)cc1` [Compound 274]: the IC50 in experiment [1] (setting [3]) and in experiment [2] (setting [4]) was < 50 nM throughout.
As for `CC(C)(N)/C=C/C(=O)Nc1ccc(N2CC(N3CCN(c4ccc5c(c4)-c4nc(N6C(=O)OC[C@H]6C(F)F)cn4CCO5)CC3)C2)cc1` [Compound 276], the IC50 in experiment [1] (setting [3]) and in experiment [2] (setting [4]) was < 50 nM throughout.
For `C=CC(=O)Nc1ccc(N2CC(N3CCN(c4ccc5c(c4)-c4nc(N6C(=O)OC[C@H]6C(F)(F)F)cn4CCO5)CC3)C2)cc1` [Compound 277], the IC50 in experiment [1] (setting [3]) and in experiment [2] (setting [4]) was < 50 nM in each case.
Consider `N#CC(=CC1CC1)C(=O)Nc1ccc(N2CC(N3CCN(c4ccc5c(c4)-c4nc(N6C(=O)OC[C@H]6C(F)F)cn4CCO5)CC3)C2)cc1` [Compound 278], for which the IC50 in experiment [1] (setting [5]) was 42 nM; in experiment [2] (setting [6]), 16 nM.
Regarding `C=CC(=O)Nc1ccc(N2CC(N3CCN(c4ccc5c(c4)-c4nc(N6C(=O)OC[C@H]6C(F)F)cn4CCO5)CC3)C2)cc1OC(F)(F)F` [Compound 279], the IC50 was found to be 2.8 nM in experiment [1] (setting [5]) and 0.1 nM in experiment [2] (setting [6]).
As for `C=CC(=O)Nc1ccc(N2CC(N3CCN(c4ccc5c(c4)-c4nc(N6C(=O)OC[C@H]6C(F)F)cn4CCO5)CC3)C2)c(OC)c1` [Compound 280], the results for the IC50 in experiment [1] (setting [5]) and in experiment [2] (setting [6]) were 3.4 nM and 0.2 nM, respectively.
Turning to `COC1(C=C(C#N)C(=O)Nc2ccc(N3CC(N4CCN(c5ccc6c(c5)-c5nc(N7C(=O)OC[C@H]7C(F)F)cn5CCO6)CC4)C3)cc2)CC1` [Compound 282], the IC50 in experiment [1] (setting [3]) and in experiment [2] (setting [4]) was < 50 nM in each case.
For `CC1CC1C=C(C#N)C(=O)Nc1ccc(N2CC(N3CCN(c4ccc5c(c4)-c4nc(N6C(=O)OC[C@H]6C(F)F)cn4CCO5)CC3)C2)cc1` (stereo partly drawn) [Compound 284], the IC50 in experiment [1] (setting [3]) and in experiment [2] (setting [4]) was < 50 nM in each case.
As to `CN(C)C/C=C/C(=O)Nc1ccc(N2CC(N3CCN(c4ccc5c(c4)-c4nc(N6C(=O)OC[C@H]6C(F)F)cn4CCO5)CC3)C2)nc1` [Compound 285], the IC50 in experiment [1] (setting [3]) and in experiment [2] (setting [4]) was < 50 nM in each case.
Consider `CN(C)C/C=C/C(=O)Nc1ncc(N2CC(N3CCN(c4ccc5c(c4)-c4nc(N6C(=O)OC[C@H]6C(F)F)cn4CCO5)CC3)C2)cn1` [Compound 286], for which the IC50 in experiment [1] (setting [3]) and in experiment [2] (setting [4]) was < 50 nM throughout.
In the case of `CN(C)C/C=C/C(=O)Nc1ccc(N2CC(N3CCN(c4ccc5c(c4)-c4nc(N6C(=O)OC[C@H]6C(F)F)cn4CCO5)CC3)C2)nn1` [Compound 287], the IC50 in experiment [1] (setting [3]) and in experiment [2] (setting [4]) was < 50 nM throughout.
Take `CN(C)C/C=C/C(=O)Nc1cnc(N2CC(N3CCN(c4ccc5c(c4)-c4nc(N6C(=O)OC[C@H]6C(F)F)cn4CCO5)CC3)C2)nc1` [Compound 288]: the IC50 in experiment [1] (setting [3]) and in experiment [2] (setting [4]) was < 50 nM each time.
For `CN(C1COC1)C(C)(C)C=C(C#N)C(=O)Nc1ccc(N2CC(N3CCN(c4ccc5c(c4)-c4nc(N6C(=O)OC[C@H]6C(F)F)cn4CCO5)CC3)C2)cn1` [Compound 289], the IC50 in experiment [1] (setting [3]) and in experiment [2] (setting [4]) was < 50 nM in each case.
As for `CC(C)(C=C(C#N)C(=O)Nc1ccc(N2CC(N3CCN(c4ccc5c(c4)-c4nc(N6C(=O)OC[C@H]6C(F)F)cn4CCO5)CC3)C2)cn1)NC1COC1` [Compound 290], the IC50 in experiment [1] (setting [3]) and in experiment [2] (setting [4]) was < 50 nM throughout.
In the case of `CC(C)(N)C=C(C#N)C(=O)Nc1ccc(N2CC(N3CCN(c4ccc5c(c4)-c4nc(N6C(=O)OC[C@H]6C(F)F)cn4CCO5)CC3)C2)cn1` [Compound 291], the IC50 in experiment [1] (setting [3]) and in experiment [2] (setting [4]) was < 50 nM throughout.
As to `CN(C1COC1)C(C)(C)C=C(C#N)C(=O)Nc1ncc(N2CC(N3CCN(c4ccc5c(c4)-c4nc(N6C(=O)OC[C@H]6C(F)F)cn4CCO5)CC3)C2)cn1` [Compound 292], the IC50 in experiment [1] (setting [3]) and in experiment [2] (setting [4]) was < 50 nM each time.
Regarding `CC(C)(C=C(C#N)C(=O)Nc1ncc(N2CC(N3CCN(c4ccc5c(c4)-c4nc(N6C(=O)OC[C@H]6C(F)F)cn4CCO5)CC3)C2)cn1)NC1COC1` [Compound 293], the IC50 in experiment [1] (setting [3]) and in experiment [2] (setting [4]) was < 50 nM each time.
On to `CC(C)(N)C=C(C#N)C(=O)Nc1ncc(N2CC(N3CCN(c4ccc5c(c4)-c4nc(N6C(=O)OC[C@H]6C(F)F)cn4CCO5)CC3)C2)cn1` [Compound 294], for which the IC50 in experiment [1] (setting [3]) and in experiment [2] (setting [4]) was < 50 nM each time.
As for `CN(C1COC1)C(C)(C)C=C(C#N)C(=O)Nc1ccc(N2CC(N3CCN(c4ccc5c(c4)-c4nc(N6C(=O)OC[C@H]6C(F)F)cn4CCO5)CC3)C2)nn1` [Compound 295], the IC50 in experiment [1] (setting [3]) and in experiment [2] (setting [4]) was < 50 nM throughout.
Regarding `CC(C)(C=C(C#N)C(=O)Nc1ccc(N2CC(N3CCN(c4ccc5c(c4)-c4nc(N6C(=O)OC[C@H]6C(F)F)cn4CCO5)CC3)C2)nn1)NC1COC1` [Compound 296], the IC50 in experiment [1] (setting [3]) and in experiment [2] (setting [4]) was < 50 nM in each case.
